Measurements as given in patent publication US20160082016A1, “Use of Clonazepam in Combination with Antibiotic in the Treatment of Bacterially Induced Meningitis” (COMMISSARIAT A L'ENERGIE ATOMIQUE ET AUX ENERGIES …, priority 2013, published 2016).

Experiments:
Streptococcus Pneumoniae [1] = assay: Antibiogram: growth inhibition diameter around paper disks on Mueller-Hinton gelose; format: cell-based; conditions: 24 hours, FIG. 5
Description: Antibiograms have been performed on the same Streptococcus Pneumoniae strain, on a Mueller-Hinton gelose plate of 90 mm diameter (Biorad) as follows 40 μL of the prepared bacteria were added to 5 mL PBS and the mix is spread on the gelose plate. The remaining liquid mix is thrown and the plate was incubated at 37° C. during 15 minutes. Antibiotic paper disks of 6mm diameter (Dominique Dutscher) were then overwhelmed with 25 μL of each molecule/combination and placed on the Mueller-Hinton gelose for 24 hours. The inhibition diameter of bacterial cell growth around the disks was then measured. • Ceftriaxone (3,2-1,6-0,8-0,4-0,2-0,1-0,05 μg/mL) • Clonazepam (10-1-0,1 μg/mL) • Ceftriaxone (0,8-0,2-0,05 μg/mL)+Clonazepam (0,1 μg/mL)

[2] = tested on: pentylenetetrazol (PTZ) induced tonic seizures; assay: Anti-epileptic effect at low dose: time before pentylenetetrazol (PTZ) induced tonic seizure; format: in vivo, mice
[3] = in vivo; cited from earlier work
Streptococcus Pneumoniae [4] = assay: Survival of Swiss mice inoculated with Streptococcus Pneumoniae, treated with ceftriaxone plus adjuvant (bacterial meningitis model); format: in vivo
Description: 200 μL of suspended 1 Mc Farland bacteria (Streptococcus Pneumoniae, CRBIP, Institut Pasteur) were seeded overnight on blood Columbia plates (BioRad). 24 h later, bacteria were suspended in 5 mL phosphate buffer solution (PBS), and diluted to obtain 1 Mc Farland 600 nm optical density (3,2.10^7 bacteria/mL for this strain).
A mice model mimicking human bacterial meningitis (Gerber G., Acta Neuropathol. 2001) was implemented; Swiss male mice were used, with food and water ab libitum. Mice were anaesthetized using isoflurane.
The Swiss mice model has been chosen for the following reasons: • It is possible to induce bacterial meningitis in a direct and reproducible way (Gerber G., Acta Neuropathol. 2001). • The induced meningitis is similar to human meningitis (Gerber G., Acta Neuropathol. 2001). In particular, the inoculated mice present several […] symptoms/responses as infected humans. The data obtained with this model can therefore be transposed to human. • Efficiency of antibiotic agents for treating bacterial meningitis is currently studied in mice (Shapiro M. A. et al, J. Antimicrob. Chemother. 2000).
A 1/80 dilution of the prepared bacteria was then performed, so as to obtain 10^4 bacteria in 25 μL. 25 μL bacteria suspension were injected in the left brain hemisphere. 24 h, 48 h and 72 h later, mice were treated with 4 mg/day, 0.4 mg/day and 0.4 mg/day respectively of ceftriaxone. Clonazepam (or saline buffer, or water) was administrated 25 h post inoculation, by intraperitoneal (ip) or oral (po) route. Mortality was assessed several times per day, during 9 days.

Compound	Growth inhibition diameter (Streptococcus Pneumoniae [1]; ceftriaxone alone 0,05-3,2 μg/mL)	Growth inhibition diameter (potentiation of ceftriaxone in vitro) (Streptococcus Pneumoniae [1]; ceftriaxone 0,8-0,2-0,05 μg/mL + clonazepam 0,1 μg/mL)	Growth inhibition diameter (intrinsic antibiotic activity) (Streptococcus Pneumoniae [1]; clonazepam alone 10, 1, 0,1 μg/mL)	Anti-epileptic effect (time before tonic seizures) ([2]; Streptococcus Pneumoniae inoculated mice, clonazepam doses inferior to 5 μg/kg, FIG. 4)	Anti-epileptic effect at the efficient adjuvant dose ([2]; clonazepam 4 μg/kg, concluded from the 1-125 μg/kg experiments)	Amount at which clonazepam has an anti-epileptic effect ([2]; healthy (non inoculated) mice, ip pretreatment 60 min before PTZ, FIG. 4) [µg/kg]	Anti-epileptic effect (time before tonic seizures) ([2]; healthy mice, clonazepam 1 μg/kg ip, FIG. 4)	Anti-epileptic effect (time before tonic seizures) ([2]; healthy mice, clonazepam 5 μg/kg ip, FIG. 4)	half-life [3] [h]	Kaplan-Meier survival rate (Streptococcus Pneumoniae [4]; clonazepam 1 μg/kg ip + ceftriaxone, compared with 4 μg/kg, p=0,045 Logrank, FIG. 2)	Kaplan-Meier survival rate (Streptococcus Pneumoniae [4]; clonazepam 2 μg/kg ip + ceftriaxone, compared with 4 μg/kg, p=0,045 Logrank, FIG. 2)	Kaplan-Meier survival rate (Streptococcus Pneumoniae [4]; clonazepam 4 μg/kg ip 25 h after inoculation + ceftriaxone 4, 0.4, 0.4 mg/day at 24, 48, 72 h, vs ceftriaxone + NaCl, p=0,04 Logrank, FIG. 1)	Kaplan-Meier survival rate, oral vs intraperitoneal (Streptococcus Pneumoniae [4]; clonazepam 4 μg/kg orally + ceftriaxone, compared with intraperitoneally administered combination, FIGS. 1, 3, 6)	Kaplan-Meier survival rate (Streptococcus Pneumoniae [4]; clonazepam 20 μg/kg ip + ceftriaxone, compared with 4 μg/kg, FIG. 1)	Kaplan-Meier survival rate (Streptococcus Pneumoniae [4]; clonazepam 100 μg/kg ip + ceftriaxone, compared with 4 μg/kg, FIG. 1)	Amount giving satisfactory potentiating effects in mice (Streptococcus Pneumoniae [4]; mice, clonazepam with antibiotic)
CO/N=C(\C(=O)N[C@@H]1C(=O)N2C(C(=O)O)=C(CSc3nc(=O)c(=O)[nH]n3C)CS[C@H]12)c1csc(N)n1 [ceftriaxone]	inhibit bacterial growth in a dose-dependent manner															
O=C1CN=C(c2ccccc2Cl)c2cc([N+](=O)[O-])ccc2N1 [clonazepam, 5-(2-chlorphenyl)-1,3-dihydro-7-nitro-2H-1,4-benzodiazepine-2-one]		Nor is it able to potentiate the antibiotic activity of ceftriaxone in vitro	no intrinsic antibiotic activity	no epileptic effect	no epileptic effect	≥ 25	no effect	no effect	18 to 50	significantly less efficient	significantly less efficient	survival increase	lower	not as efficient	not as efficient	at least 2 μg/kg
